Source: PMC11335211, “In vivo photocontrol of orexin receptors with a nanomolar light-regulated analogue of orexin-B” (Cellular and Molecular Life Sciences: CMLS, 2024)
*1 amine or outer side, *2 acyl side, *3 side chain or, on linkers, in order; H or OH if unused. Where a SMILES comes first, the peptide text is derived from it. [ ]: non-standard residue; d: D form. X1 = O=C(Cc1cccc(N=Nc2cccc(CN[*:1])c2)c1)[*:2]

What was measured:
hOX2 [1] = molecular target: T1, hOX2 (Homo sapiens, UniProt O43614); assay: Radioligand competitive binding assay ([3H]EMPA); design: expressed in transfected cells; membranes
T1 sequence (O43614 1-444): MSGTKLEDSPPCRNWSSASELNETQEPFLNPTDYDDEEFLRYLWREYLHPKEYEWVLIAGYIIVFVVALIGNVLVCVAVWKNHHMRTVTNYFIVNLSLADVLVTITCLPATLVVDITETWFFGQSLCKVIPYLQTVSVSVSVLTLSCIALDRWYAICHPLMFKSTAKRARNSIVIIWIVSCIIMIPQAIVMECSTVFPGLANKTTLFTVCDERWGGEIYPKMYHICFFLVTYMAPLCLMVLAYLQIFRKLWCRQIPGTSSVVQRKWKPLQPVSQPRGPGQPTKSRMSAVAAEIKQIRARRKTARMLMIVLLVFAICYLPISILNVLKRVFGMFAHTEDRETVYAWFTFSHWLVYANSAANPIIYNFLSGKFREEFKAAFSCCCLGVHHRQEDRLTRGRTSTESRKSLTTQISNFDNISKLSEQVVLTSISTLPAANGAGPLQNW
Text: The affinity towards OX2 was studied in a competitive radioligand binding assay on membranes derived from HEK-293 cells stably transfected with the human receptor. [^3H]EMPA, an OX2-selective orthosteric antagonist, was used as radioactive tracer to quantify residual binding after competitive displacement in the presence of the unlabeled ligands.^3 Wild-type OX-B and almorexant, a non-selective OX1 and OX2 antagonist, served as controls.^4
[^3H]EMPA (specific activity 27 Ci/mmol) and almorexant were synthesized at Janssen Research & Development LLC (San Diego, CA), while orexin-B was obtained from Bachem (Torrance, CA).
Cell membranes were prepared from a stable pool of HEK-293 cells transfected with the human OX2. Test compounds were dissolved in DMSO (10 mM stock solutions) and diluted in Dulbecco’s phosphate-buffered saline supplemented with 0.1% bovine serum albumin (BSA). Competition studies were performed by incubating the membranes with the OX2-selective antagonist [^3H]EMPA (2 nM) and different concentrations of the test compounds (7 concentrations ranging from 10^−9 to 10^−6 M). After a 60-minute incubation at rt, binding reactions were filtered to separate the excess of free ligand from the membranes. Filters were then counted for radioactivity in a scintillation counter. Nonspecific binding was determined in the presence of 10 µM almorexant.
Specific binding was determined and plotted as a function of the concentration of the compound using GraphPad Prism v8.3.1 (GraphPad Software, San Diego, USA). Data were analyzed by nonlinear regression using a one-site competition model.

[2] = Resistance to photofatigue; format: physicochemical; details: several UV (365 nm)/blue (455 nm) cycles of 3 min; 25 µM in PBS pH 7.4, 25 °C; UPLC
Procedure: Stability to photodegradation was evaluated by exposing a phOX sample (25 µM in PBS at pH 7.4 and 25 °C) to alternating intervals (3 min each) of UV and visible light illumination (365 and 455 nm, respectively). The trans-cis isomeric distributions under different illumination conditions were measured by integrating the area of the corresponding peaks after UPLC analysis. These values were then converted to isomer percentages and plotted. After several cycles, no reduction could be observed in the isomers’ peak area, thus confirming photorexin stability to photodegradation.

human OX1 = molecular target: T2, human OX1 (Homo sapiens, UniProt O43613); assay: FLIPR Tetra calcium mobilization assay, CHO-K1 cells; format: cell-based; details: CHO-K1-hOX1; FLIPR; in words
T2 construct: expressed in transfected cells
T2 sequence (O43613 1-425): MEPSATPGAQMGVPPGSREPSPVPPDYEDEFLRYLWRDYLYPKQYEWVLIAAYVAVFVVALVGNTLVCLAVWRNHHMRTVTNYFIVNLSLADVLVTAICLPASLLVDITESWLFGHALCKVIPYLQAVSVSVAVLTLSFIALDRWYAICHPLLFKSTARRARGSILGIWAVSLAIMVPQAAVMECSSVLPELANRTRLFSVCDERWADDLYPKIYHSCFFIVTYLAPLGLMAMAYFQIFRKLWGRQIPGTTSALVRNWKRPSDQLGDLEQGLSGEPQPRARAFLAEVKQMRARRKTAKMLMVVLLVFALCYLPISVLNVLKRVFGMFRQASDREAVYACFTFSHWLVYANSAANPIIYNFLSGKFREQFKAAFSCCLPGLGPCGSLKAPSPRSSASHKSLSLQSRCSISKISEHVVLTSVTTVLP
Procedure: (§1) Samples of trans phOX were kept in the dark both prior to and during the whole duration of the experiment to avoid undesired photoconversion caused by environmental light. Unless differently stated, data for cis phOX were obtained by pre-illuminating the samples for 10 min with 365 nm UV light.
(§2) PFSK-1 cells were cultured in RPMI 1640 supplemented with 10% fetal bovine serum (FBS), 100 units/ml penicillin, and 100 µg/ml streptomycin. Chinese hamster ovary-K1 (CHO-K1) cells stably transfected to express human OX1 were cultured in Dulbecco’s Modified Eagle’s Medium/Nutrient Mixture F-12 Ham (DMEM/F12 1:1) medium supplemented with 10% FBS and 600 µg/ml G418. All cell lines were grown at 37 °C in 5% CO2.
(§3) Cells were plated at 50,000 cells/well in 96-well black-wall plates with poly-D-lysine-coated clear bottoms and grown overnight at 37 °C in 5% CO2. […] Calcium-mediated changes in fluorescence were monitored in a Fluorometric Imaging Plate Reader (FLIPR) Tetra instrument (Molecular Devices, USA). Fluorescence intensity was measured for 12 s to establish baseline fluorescence before addition of the test compound (20 µL/well) and further readings for a total of 155 s (excitation at 470–495 nm, detection at 515–575 nm). […]
(§4) Raw data from the FLIPR Tetra was exported as the difference between maximum and minimum fluorescence observed for each well. […] Agonist potencies (EC50) are expressed as means + SD.

hOX2 [3] = molecular target: T1, hOX2; assay: FLIPR Tetra calcium mobilization assay, PFSK-1 cells; format: cell-based; details: PFSK-1, hOX2; FLIPR; in words
Procedure: as §1, §2, §3, §4

hOX2 [4] = molecular target: T1, hOX2; assay: In vitro single-cell calcium imaging, tsA201-hOX2; format: cell-based; design: expressed in transfected cells; host or cells: tsA201 (transformed human kidney cells), transient, co-transfected with R-GECO1; details: 100 nM, AUC normalized to dark-adapted phOX, mean, n = 20 cells
Procedure: Transformed human kidney tsA201 cells were purchased from the European Collection of Authenticated Cell Culture. Cells were maintained at 37 °C in a humidified atmosphere with 5% CO2 and grown in Dulbecco’s Modified Eagle’s Medium/Nutrient Mixture F-12 Ham (DMEM/F12 1:1) medium (Life Technologies), supplemented with 10% FBS (Life Technologies) and 1% penicillin/streptomycin (Sigma-Aldrich).
Clones of GFP-labelled orexin receptors were kindly provided by Prof. Jyrki Kukkonen and the exact protein sequences have been reported by Putula et al.. The plasmid for the genetically encoded calcium indicator R-GECO1 was acquired from Addgene. Cells were transiently transfected with hOX1 or hOX2 receptors and R-GECO1 with X-tremeGENE 9 DNA Transfection Reagent (Roche Applied Science) following the manufacturer’s instructions. After 24 h, cells were harvested with accutase (Sigma-Aldrich) and plated onto 16-mm glass coverslips (Fisher Scientific) pre-treated with poly-L-Lysine (Sigma-Aldrich) to allow cell adhesion. Experiments were performed using pre-confluent cultures between 48 and 72 h after transfection. […]
Images were analyzed using FIJI (ImageJ). Data were analyzed and processed using GraphPad Prism v8.3.1. Statistical differences were determined by one-way ANOVA followed by Tukey’s multiple comparison post-hoc test. […]

OX1 = details: in words; cited from earlier work
Text: (§5) Among these, a family of neuroexcitatory peptides known as orexins (or hypocretins) is critically involved in regulating sleep and wakefulness, energy homeostasis, and reward. Orexin signaling is mediated by two closely related G protein-coupled receptors (GPCRs) – OX1 and OX2 (orexin) receptors – which are strongly conserved among mammals. While orexin cell bodies are concentrated in the hypothalamic area, orexin receptors are widely expressed in the central nervous system (CNS). Their endogenous ligands are two peptides, named ...

OX2 = details: in words; cited from earlier work
Text: as §5

OX1 receptor = details: membrane-based binding assay; ref Langmead et al., 5 (SI); cited from earlier work
Text: Although the lack of binding with all three forms of OX-B - including the native ligand control - came unexpected, similar findings had already been observed for the OX1 receptor.

[5] = design: method as in 2 sources, one per row (each row's own in cited_ref): ref 75–77 = [75]; PMID 10087007; 75. Kastin AJ Akerstrom V Orexin A but not orexin B rapidly enters brain from blood by simple diffusion J Pharmacol Exp Ther 1999 289 219 223 10087007 || [76]; PMID 12626669; doi:10.1113/jphysiol.2002.038729; 76. John J Wu M-F Kodama T Siegel JM Intravenously administered hypocretin-1 alters brain amino acid release: an in vivo microdialysis study in rats J Physiol 2003 548 557 562 10.1113/jphysiol.2002.03 || [77]; PMID 14746374; doi:10.1093/sleep/26.8.953; 77. Fujiki N Yoshida Y Ripley B Mignot E Nishino S Effects of IV and ICV hypocretin-1 (orexin A) in hypocretin receptor-2 gene mutated narcoleptic dogs and IV hypocretin-1 replacement therapy in a hyp ||| ref 75 = [75]; PMID 10087007; 75. Kastin AJ Akerstrom V Orexin A but not orexin B rapidly enters brain from blood by simple diffusion J Pharmacol Exp Ther 1999 289 219 223 10087007; details: intravenous administration or blood-free perfusion in mammals; cited from earlier work

CNC(=O)[C@@H](c1ccccc1)N1CCc2cc(OC)c(OC)cc2[C@@H]1CCc1ccc(C(F)(F)F)cc1 [almorexant]
Ki (hOX2 [1]): 3 nM | inhibition of [3H]EMPA binding (hOX2 [1]; control ligands, HEK-293-hOX2 membranes, [3H]EMPA 2 nM, 60 min rt, 10^-9 to 10^-6 M, two independent experiments in triplicates): fully displaced the radioligand

CC[C@H](C)[C@H](NC(=O)CNC(=O)[C@H](C)NC(=O)[C@H](C)NC(=O)Cc1cccc(N=Nc2cccc(CNC(=O)CNC(=O)[C@H](CO)NC(=O)[C@H](C)NC(=O)[C@H](CCC(N)=O)NC(=O)[C@H](CC(C)C)NC(=O)[C@H](CC(C)C)NC(=O)[C@H](CCCNC(=N)N)NC(=O)[C@H](CCC(N)=O)NC(=O)[C@H](CC(C)C)NC(=O)[C@H](CCCNC(=N)N)NC(=O)CNC(=O)[C@H](CCC(N)=O)NC(=O)[C@H](CC(C)C)NC(=O)CN)c2)c1)C(=O)N[C@@H](CC(C)C)C(=O)N[C@H](C(=O)N[C@@H](CCSC)C(N)=O)[C@@H](C)O [photorexin] (H-GLQGRLQRLLQASG[X1]AAGILTM-NH2)
degradation or bleaching over light cycles [2]: without significant degradation or bleaching | potency (human OX1): high nanomolar potency | potency (hOX2 [3]): high nanomolar potency | retained activity under UV, relative to dark-adapted peptide (hOX2 [4]; 365 nm (cis-enriched)): 6% | recovery of calcium response under blue light, relative to initial response (hOX2 [4]; 455 nm after UV): 52%

OX-A: endogenous orexin peptide with two disulfide bridges (QPLPDCCRQKTCSCRLYELLHGAGNHAAGILTL; not fully specified; Orexin-A; UniProt O43612 34-66, looked up)
affinity at OX1 (OX1): high affinity | affinity at OX2 (OX2): high affinity | occupation of OX1 orthosteric site versus [3H]SB-674042 (OX1 receptor): failed to occupy the receptor orthosteric site | blood-brain barrier penetration [5]: penetrate the blood-brain barrier by simple diffusion
